Experimental data reported in patent publication US20230295436A1, “INTERMOLECULARLY-FABRICATED COMPOSITION FOR ENCAPSULATING PLANT MATERIALS, AGROCHEMICALS AND PHARMACEUTICALS” (University of Central Florida Research Foundation, Inc., priority 2022, published 2023).
Values after ≈ are worked out from the molar mass of the structure shown.

Assays:
[1] = Dynamic light scattering (hydrodynamic size, PDI); type: physicochemical; settings: optimized formulations and controls, Table 1
Excerpt: (§1) Malvern Zetasizer Nano ZS90 was used to study the hydrodynamic size, surface charge, and polydispersity index (PDI) of the NPs. Agilent Cary 300 Bio UV-Vis spectrophotometer was used to measure the absorbance of materials across the UV-Visible spectrum. Spectronic 200 spectrophotometer was used to carry out the degradation and release rate studies. Samples were freeze-dried using a Labconco lyophilizer. Shimadzu IRSpirit with QATR-S was used to obtain
(§2) DLS and ZP measurements were done using a Malvern Zetasizer ZS90 to determine the samples' hydrodynamic size and surface charge, respectively. The samples were diluted to approximately 200 ppm of curcumin to obtain 100 to 1000 kilo counts per second (kcps). Samples were added into the appropriate cuvettes for DLS and ZP readings.

[2] = Degradation rate of curcumin in aqueous solution; type: physicochemical
Procedure: The degradation rate of Cur-TA-PVP NPs and free curcumin was determined by measuring the peak absorbance over time as this can be correlated to the concentration in solution. […] Absorbance readings of samples were acquired at 425 nm every 60 minutes for 24 hours. Degradation rate equations were determined based on the trendlines that provide an R2 of 0.95 or greater. Simple linear regressions were also performed to compare the slopes of the degradation curves to determine if the difference was statistically significant.

[3] = cited from earlier work
[4] = Appearance / colloidal stability in water; type: physicochemical; settings: aqueous solution
Excerpt: Biochim Biophys Acta, 2008. 1780(4): p. 673-9.]. Curcumin directly interacts with or leads to the upregulation of many intracellular proteins involved in anti-inflammation, antioxidant, neuroprotective, and re-myelination pathways [Caillaud, M., et al., Key Developments in the Potential of Curcumin for the Treatment of Peripheral Neuropathies. Antioxidants (Basel), 2020. 9(10).]. Thus, the therapeutic potential of free curcumin is lowered by its propensity to reside in the lipid bilayer. Since the TA-PVP carrier improves the stability of curcumin in water, it is therefore expected that this would enhance its availability within the cytoplasm of cells to reach or upregulate targets involved in achieving successful PNR. The NP formulation dramatically increases the colloidal stability of curcumin compared to its free form alone in the aqueous solution.

[5] = Zeta potential (surface charge); type: physicochemical; settings: optimized formulations and controls, Table 1
Excerpt: as §1, §2

S16 Rat Schwann Cells = assay: AlamarBlue viability assay, S16; type: cell-based; settings: S16 RSCs, 24 hours, 0 to 80 μM curcumin
Procedure: The viability of cells when treated with Cur-TA-PVP, TA-PVP, or free curcumin was assessed to determine the therapeutic window of treatments. This was done by performing an alamarBlue (resazurin) assay according to the manufacturer's instructions. The cell types assessed were models for those involved in PNI and subsequent PNR: S16 rat Schwann cells (RSCs), J744 murine macrophages, and SH-SY5Y cells (neuronal cell line). SH-SY5Y cells were cultured in DMEM/F12 supplemented with 10% FBS and 1% penicillin/streptomycin, whereas the J744 macrophages and S16 RSCs were cultured in DMEM supplemented with 10% FBS and 1% streptomycin/penicillin.
First, cells (n=3) were seeded in 96 well plates at a density of 10^4 cells per well and incubated overnight in a humidified atmosphere at 37° C. and 5% CO2. Cur-TA-PVP and free curcumin were then introduced into the wells at a concentration range of 0 to 80 μM curcumin. In the case of TA-PVP, the concentration range was equivalent to TA and PVP concentrations in the Cur-TA-PVP NPs. The plates were incubated for 24 hours, and the media containing treatments was then removed and fresh media with 10% 0.15 mg/mL resazurin was added into all wells. The plates were incubated for 2 hours, and the fluorescence was read using a Tecan plate reader at an ex/em of 560/590 nm. The cell viability was calculated using the following equation.

SH-SY5Y cells = assay: H2O2-induced oxidative stress and cell viability, SH-SY5Y; type: cell-based; settings: 6 hours pre-treatment, 50 μM H2O2 for 18 hours
Procedure: The potential for Cur-TA-PVP, TA-PVP, or free curcumin to rescue cells from oxidative damage induced by H2O2 was assessed to determine the antioxidant activity of the treatments in cells. The assay was performed according to a previously published protocol by Mahakunakorn et al. [Mahakunakorn, P., et al., Cytoprotective and cytotoxic effects of curcumin: dual action on H2O2-induced oxidative cell damage in NG108-15 cells. Biol Pharm Bull, 2003. 26(5): p. 725-8.]. Briefly, SH-SY5Y cells and J744 murine macrophages were each seeded in 96 well plates (n=3) and incubated overnight at 37° C. and 5% CO2. Cells were then pre-treated with fresh media containing treatments for 6 hours, and then with fresh media containing 100 μM H2O2 (J774) or 50 μM (SH-SY5Y) for another 18 hours. The media was then replaced with complete media containing 10% of 0.15 mg/mL resazurin. The cells were incubated for 2 hours, and the fluorescence was read at an ex/em of 560/590 nm. The cell viability was determined using the equation noted in section 10.3.1.

SMILES: COc1cc(/C=C/C(=O)CC(=O)/C=C/c2ccc(O)c(OC)c2)ccc1O [Free Curcumin, curcumin]
- Polydispersity Index (PDI) [1]: 0.578
- Z-ave [1]: 328 nm·days
- slope of degradation curve (simple linear regression) ([2]; 40 μM in water, absorbance at 425 nm every 60 minutes for 24 hours): −0.01123
- curcumin remaining in its viable form ([2]; after 24 hours of dispersion in PBS): about 60%
- water solubility [3]: 0.1 mg/mL (≈ 271 µM)
- colloidal stability in water (appearance) [4]: precipitate and sink to the bottom of the vial
- Zeta Potential [5]: −13 mV
- cell viability compared to other treatment groups (S16 Rat Schwann Cells): higher cell viability than the other treatment groups at all concentrations
- protection against H2O2-induced oxidative stress (cell rescue) (SH-SY5Y cells): no cell rescue
